Where “and” joins values, the source holds several entries; their conditions need not be identical. Identical values can stand only once.
Experiments:
[1] = Crystal; for molar entropy / mass density: 101.33 kPa; for molar entropy: Small (less than 1 g) adiabatic calorimetry; for vapor or sublimation pressure: Calculated from knudsen effusion weight loss
[2] = molar heat capacity at constant pressure; details: 101.33 kPa, Crystal, Small (less than 1 g) adiabatic calorimetry

C1C2CC3CC1CC(c1nnn[nH]1)(C2)C3 [5-(1-adamantyl)tetrazole]
Details | Normal melting temperature [°C] | molar entropy [J/K/mol] | molar heat capacity at constant pressure [J/K/mol] | vapor or sublimation pressure
[1], 5 K | – | 0.1627 | – | –
[1], 10 K | – | 1.359 | – | –
[1], 15 K | – | 4.002 | – | –
[1], 20 K | – | 7.655 | – | –
[1], 25 K | – | 11.89 | – | –
[1], 30 K | – | 16.44 | – | –
[1], 35 K | – | 21.13 | – | –
[1], 40 K | – | 25.84 | – | –
[1], 45 K | – | 30.53 | – | –
[1], 50 K | – | 35.17 | – | –
[1], 60 K | – | 44.22 | – | –
[1], 70 K | – | 52.95 | – | –
[1], 80 K | – | 61.41 | – | –
[1], 90 K | – | 69.64 | – | –
[1], 100 K | – | 77.69 | – | –
[1], 120 K | – | 93.37 | – | –
[1], 140 K | – | 108.7 | – | –
[1], 160 K | – | 123.8 | – | –
[1], 180 K | – | 138.9 | – | –
[1], 200 K | – | 154 | – | –
[1], 220 K | – | 169.4 | – | –
[1], 240 K | – | 185 | – | –
[1], 260 K | – | 200.8 | – | –
[1], 280 K | – | 216.8 | – | –
[1], 298.15 K | – | 231.5 | – | –
[1], 300 K | – | 232.9 | – | –
[1], 320 K | – | 249 | – | –
[1], 340 K | – | 265 | – | –
[1], 360 K | – | 281 | – | –
[1], 370 K | – | 289 | – | –
[1], 393.68 K | – | – | – | 5.34e-05 kPa
[1], 398.71 K | – | – | – | 8.43e-05 kPa and 8.47e-05 kPa
[1], 403.71 K | – | – | – | 0.0001344 kPa
[1], 403.72 K | – | – | – | 0.0001377 kPa
[1], 403.74 K | – | – | – | 0.0001377 kPa
[1], 408.72 K | – | – | – | 0.0002136 kPa and 0.0002121 kPa
[1], 408.74 K | – | – | – | 0.0002167 kPa
[1], 413.74 K | – | – | – | 0.0003204 kPa
[1], 413.75 K | – | – | – | 0.0003212 kPa
[1], 413.76 K | – | – | – | 0.0003363 kPa
[1], 418.74 K | – | – | – | 0.0005125 kPa
[1], 418.77 K | – | – | – | 0.0005047 kPa
[1], 418.8 K | – | – | – | 0.000516 kPa
[1], visual observation | 251.00 | – | – | –
[2], 5 K | – | – | 0.4912 | –
[2], 10 K | – | – | 3.942 | –
[2], 15 K | – | – | 9.695 | –
[2], 20 K | – | – | 16.01 | –
[2], 25 K | – | – | 22.15 | –
[2], 30 K | – | – | 27.84 | –
[2], 35 K | – | – | 32.99 | –
[2], 40 K | – | – | 37.67 | –
[2], 45 K | – | – | 42 | –
[2], 50 K | – | – | 46.01 | –
[2], 60 K | – | – | 53.34 | –
[2], 70 K | – | – | 60.13 | –
[2], 80 K | – | – | 66.67 | –
[2], 90 K | – | – | 73.18 | –
[2], 100 K | – | – | 79.7 | –
[2], 120 K | – | – | 92.76 | –
[2], 140 K | – | – | 106.3 | –
[2], 160 K | – | – | 120.6 | –
[2], 180 K | – | – | 136 | –
[2], 200 K | – | – | 152.5 | –
[2], 220 K | – | – | 170 | –
[2], 240 K | – | – | 188.4 | –
[2], 260 K | – | – | 207.4 | –
[2], 280 K | – | – | 225.3 | –
[2], 298.15 K | – | – | 240 | –
[2], 300 K | – | – | 241.6 | –
[2], 320 K | – | – | 256.9 | –
[2], 340 K | – | – | 272 | –
[2], 360 K | – | – | 287.6 | –
[2], 370 K | – | – | 295.6 | –

[1]
Details | mass density [kg/m3]
100 K, X-ray diffraction | 1308
292.15 K, Pycnometric method | 1470

Reference: the NIST ThermoML archive (doi:10.1016/j.tca.2014.07.018)
